Data published in patent US6488966B2, “Composition and method for reducing the risk of carcinogenesis” (The Trustees of Dartmouth College, priority 1998, dated 2002).
Read-outs that look alike come from different tables or passages of the source.

Columns and labels:
[1] = Method: (§1) We reviewed data from 2,918 apparently eligible patients. […] The trial was double-blind; neither subjects nor study staff were told the subjects' treatment assignments.
At enrollment and at the time of each of the two follow-up colonoscopies, we obtained venous blood specimens in mineral-free tubes. Serum was initially stored at −20° C. or lower, pending shipment to Dartmouth for storage at −70° C. until analysis. At enrollment and the end of the study, we also assessed subjects' diet with a validated food frequency questionnaire (Block et al., Am. J. Epidemiol., 124:453-69, 1986). Every six months, we sent patients questionnaires regarding adherence to study agents; use of medications, over-the-counter drugs and nutritional supplements; and the occurrence of symptoms, illnesses, and hospitalizations. Recruitment into the study began in November 1988 and ended in April 1992. Follow-up ended in December 1996.
(§2) For our statistical analyses, we compared proportions using Fisher's exact test, and measured data using t-tests or rank tests (Snedecor and Cochran, Statistical Methods, Seventh Edition, Ames: Iowa State University Press, 1980). […] To address the first issue, we used overdispersed log-linear quasi-likelihood models programmed in SPlus (Seattle) to provide unadjusted and adjusted estimates and confidence intervals for the relative risk of at least one recurrent adenoma (McCullagh and Nelder, Generalized Linear Models (Second Edition), Chapman-Hall, 1989). […] Co-variates included age (linear term), gender, the lifetime number of adenomas before study entry, clinical center, and the length of the surveillance interval. Possible interactions were considered using product interaction terms. Subgroup analyses included investigation of subjects above and below the median of the calorie-adjusted intake (Willet, Nutritional Epidemiology, Oxford University Press, 1990) of selected nutrients. […] All P-values were two-sided.

colorectal adenomas = tested on: colorectal adenomas
Description: Dartmouth was the coordinating center and the University of Minnesota was the pathology center. Human subjects committees at each center approved the study protocol; an independent safety and data monitoring committee reviewed the study semi-annually.
Staff at each clinical center monitored colonoscopy and pathology records at associated endoscopy units to identify patients with at least one histologically-confirmed large bowel adenoma removed within three months of recruitment, and with the entire large bowel mucosa subsequently examined and judged free of remaining polyps.
as §1
Subjects received two follow-up colonoscopies as part of their routine clinical care, generally by the same physician who conducted the qualifying exam. The first follow-up examination was planned for approximately one year after the qualifying colonoscopy (about nine months after randomization), and a second follow-up examination was planned for thirty-six months after that. Large bowel endoscopy was otherwise discouraged unless clinically indicated (e.g., for rectal bleeding). Follow-up examinations were considered “adequate” if the entire large bowel mucosa was visualized, and no polyps remained at the end of the procedure. We designated the time from randomization to the first follow-up exam as the first study interval, and the period after the first follow-up exam up to (and including) the second follow-up colonoscopy as the second study interval.
At each colonoscopy, the endoscopist recorded the size and location of all mucosal lesions, using standard clinical technique. […] In cases of disagreement, we accepted the study pathologist's diagnosis.
The primary endpoint of the trial was the proportion of subjects having at least one adenoma detected during the second study interval, i.e., after the first follow-up colonoscopy, up to and including the second follow-up examination (including adenomas detected during interim endoscopies).
as §2

[2] = at least one endoscopy, study exams
[3] = at or before the first follow-up
[4] = calcium vs placebo, 913 subjects with at least one study colonoscopy
[5] = calcium vs placebo, completed the study, 2nd study interval
[6] = calcium vs placebo, completed the trial, first study interval
[7] = calcium vs placebo, second study interval
[8] = completed the study, 1st or 2nd study interval
[9] = completed the study, 1st study exam
[10] = completed the study, 2nd study exam
[11] = completed the study, 2nd study interval (main risk period)

In the case of O=C([O-])[O-].[Ca+2] [calcium, calcium carbonate], the “Hospitalized: All cancer, %” value ([1]; after randomization) is reported as “(3.2) %”, the “Hospitalized: Cardiac disease, %” value ([1]; after randomization) is reported as “(10.8) %” and the “Hospitalized: Gastrointestinal disease, %” value ([1]; after randomization) is reported as “(8.2) %”. For the same compound, the “Hospitalized: Other, %” value ([1]; after randomization) was “(27.2) %”, the “Hospitalized: Stroke, %” value ([1]; after randomization) was “(2.6) %” and the “Stopped treatment because of perceived toxicity, %” value ([1]; after randomization) was “(2.6) %”. The “patients diagnosed with definite or probable urinary stones” value ([1]; after randomization) was “Two”, the “Subjects Hospitalized, %” value ([1]; after randomization, any reason) was “(37.1) %” and the “toxicity (in words)” value ([1]; calcium supplementation during the trial, listed as calcium carbonate) was “minimal”. For the same compound, the “frequency of digestive symptoms (including constipation)” value ([1]; calcium vs placebo) was “did not differ materially”, the “medical complaints and complications (in words)” value ([1]; calcium vs placebo) was “not associated with treatment assignment” and the “Mean number of adenomas” value (colorectal adenomas; at least one endoscopy, 1st or 2nd interval) was 0.92. For the same compound, the “% with one or more adenomas” value (colorectal adenomas; [2]) was 42.3%, the “Mean number of adenomas” value (colorectal adenomas; [2]) was 0.86 and the “participants with an adenoma with severe atypia removed” value (colorectal adenomas; [3]) was “one”. The “patients with invasive cancer” value (colorectal adenomas; [3]) was 2, the “Ratio of the mean number of adenomas” value (colorectal adenomas; calcium vs placebo, adjusted, completed the study (832 subjects), 2nd study interval) was 0.76 and the “unadjusted ratio of the average numbers of adenomas” value (colorectal adenomas; [4]) was 0.74. The “unadjusted risk ratio of at least one adenoma after randomization” value (colorectal adenomas; [4]) was 0.85, the “unadjusted ratio of the average number of adenomas” value (colorectal adenomas; [5]) was 0.75 and the “unadjusted risk ratio for at least one adenoma” value (colorectal adenomas; [5]) was 0.83. For the same compound, the “unadjusted ratio of the average numbers of adenomas” value (colorectal adenomas; [6]) was 0.73, the “unadjusted risk ratio for at least one adenoma” value (colorectal adenomas; [6]) was 0.77 and the “unadjusted risk ratio for at least one adenoma 0.5 cm or greater versus no adenomas” value (colorectal adenomas; [7]) was 0.87. For the same compound, the “unadjusted risk ratio, largest adenoma less than 0.5 cm versus no adenomas” value (colorectal adenomas; [7]) was 0.75, the “% with one or more adenomas” value (colorectal adenomas; [8]) was 44.7% and the “Mean number of adenomas” value (colorectal adenomas; [8]) was 0.98. The “% with one or more adenomas” value (colorectal adenomas; [9]) was 24.4%, the “Mean number of adenomas” value (colorectal adenomas; [9]) was 0.40 and the “Mean number of adenomas” value (colorectal adenomas; completed the study, 1st study interval) was 0.43. For the same compound, the “% with one or more adenomas” value (colorectal adenomas; [10]) was 30.1%, the “Mean number of adenomas” value (colorectal adenomas; [10]) was 0.51 and the “mean size of the largest adenoma” value (colorectal adenomas; completed the study, 2nd study interval) was 0.4 cm. For the same compound, the “% with one or more adenomas” value (colorectal adenomas; [11]) was 31.1%, the “Mean number of adenomas” value (colorectal adenomas; [11]) was 0.55 and the “% with one or more adenomas” value (colorectal adenomas; completed the study, 2nd study interval (main risk period), listed as CALCIUM) was 31.1%. For the same compound, the “number of patients with at least one colorectal adenoma” value (colorectal adenomas; completed the study, main risk period (2nd study interval)) was 127, the “number of subjects with at least one adenoma” value (colorectal adenomas; completed the trial, up to and including the first follow-up exam) was 103 and the “adenomas with severe atypia removed” value (colorectal adenomas; during the main risk period) was “no adenomas with severe atypia were removed”. For the same compound, the “subjects with invasive large bowel cancer” value (colorectal adenomas; during the main risk period) was 1, the “subjects whose largest adenoma was less than 0.5 cm” value (colorectal adenomas; second study interval) was 70 and the “subjects with an adenoma 0.5 cm or greater” value (colorectal adenomas; second study interval) was 57. The “% with one or more adenomas” value (colorectal adenomas; subjects who completed the study (409 calcium), 1st study interval (randomization to first follow-up colonoscopy)) was 25%, the “% with one or more adenomas” value (colorectal adenomas; subjects who completed the study (409 calcium), 1st study interval (randomization to first follow-up colonoscopy), listed as CALCIUM) was 25.2% and the “% with one or more adenomas” value (colorectal adenomas; subjects who had at least one endoscopy (454 calcium), 1st or 2nd interval) was 43.2%.
